Data: PubChem BioAssay (NCI)
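Cells were grown in 96-well plates and exposed to each compound for 48 hours at five concentrations; endpoints were interpolated linearly between bracketing concentrations, or set to the highest concentration if not reached. TGI: total growth inhibition.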 Where a SMILES comes first, the peptide text is derived from it. The star is where a group is joined. Cbz = O=C(OCc1ccccc1)*

What was measured:
Experiment in all cases: inhibition of tumour cell growth, NCI panel, 48 h
BT-549 breast = system: BT-549 breast
T-47D breast = system: T-47D breast
U251 CNS = system: U251 CNS
MALME-3M melanoma = system: MALME-3M melanoma
ACHN renal = system: ACHN renal
A498 renal = system: A498 renal
LOX IMVI melanoma = system: LOX IMVI melanoma
HCC-2998 colon = system: HCC-2998 colon
HCT-15 colon = system: HCT-15 colon
SK-MEL-2 melanoma = system: SK-MEL-2 melanoma
OVCAR-4 ovarian = system: OVCAR-4 ovarian
SF-295 CNS = system: SF-295 CNS
NCI-H226 lung = system: NCI-H226 lung

| Structure (SMILES) | TGI (BT-549 breast) [µM] | TGI (T-47D breast) [µM] | TGI (U251 CNS) [µM] | TGI (MALME-3M melanoma) [µM] | TGI (ACHN renal) [µM] | TGI (A498 renal) [µM] | TGI (LOX IMVI melanoma) [µM] | TGI (HCC-2998 colon) [µM] | TGI (HCT-15 colon) [µM] | TGI (SK-MEL-2 melanoma) [µM] | TGI (OVCAR-4 ovarian) [µM] | TGI (SF-295 CNS) [µM] | TGI (NCI-H226 lung) [µM] |
| --- | --- | --- | --- | --- | --- | --- | --- | --- | --- | --- | --- | --- | --- |
| CC(=O)c1c(N=[N+]=[N-])c2cccc3c2n(c1=O)CCC3 | 39.8 | 60.4 | 31.6 | 27.6 | 54.2 | 55.6 | 40.8 | 32 | 47.4 | 75.2 | 52.3 | 60 | 50.4 |
| Cc1ccnc2c1C(=O)C1=C(OC(C)(C)CC1O)C2=O (configuration not stated) | 12.7 | 19.4 | 13.2 | 3.02 | 22.9 | 32 | 8.91 | 15.3 | 9.97 | 8.83 | 12.8 | 8.79 | 21.2 |
| N#Cc1cc2c(cc1Cl)Sc1nnc(Nc3ccccc3)n1S2(=O)=O | 8.12 | 13.3 | 3.6 | 5 | 3.32 | 20.8 | 3.75 | 3 | 5.61 | 8.26 | 7.79 | 9.2 | 5.99 |
| c1ccc2c3[nH]c(c2c1)=Nc1ccc(cc1)-c1nc2ccc(cc2o1)N=c1[nH]c(c2ccccc12)=Nc1ccc2nc(oc2c1)-c1ccc(cc1)N=3 | > 100 | > 100 | 88.3 | – | 35.5 | > 100 | > 100 | 42.7 | 25.3 | > 100 | – | > 100 | > 100 |
| N/C(=N\S(=O)(=O)c1ccc(-c2ncccc2C(F)(F)F)s1)Nc1ccc(Cl)cc1 | 29 | 48.3 | 25.8 | 30.1 | 30 | 30.7 | 29.8 | – | 32.2 | 29.3 | 42.9 | 31.6 | 41.4 |
| COC(=O)[C@@H](NC(=O)N(Cc1ccccc1)C[C@H](CC(C)C)NC(=O)[C@@H](NC(=O)OC(C)(C)C)C(C)C)C(C)C | > 100 | > 100 | > 100 | > 100 | > 100 | > 100 | > 100 | > 100 | > 100 | > 100 | > 100 | > 100 | > 100 |
| C=CC1(CC[C@]2(c3ccc(OC)c(OC)c3)C=[N+]([O-])O[C@H](O[C@@H]3CCCC[C@H]3C(C)(C)c3ccccc3)C2)OCC(C)(C)CO1 | 98.6 | > 46.7 | > 50.5 | 24.8 | > 50 | > 61 | 35.1 | 31.3 | > 48.5 | 28.7 | 28.9 | > 51.2 | 38 |
| Oc1c(Br)ccc2cccnc12 | > 92.2 | 21.1 | > 100 | > 64.4 | 55.8 | 51.8 | > 28.5 | > 100 | > 100 | > 100 | > 92.9 | 14.9 | 38.5 |
| COc1ccc2nc(-c3ccccc3)c(=O)[nH]c2c1 | > 100 | > 100 | – | > 100 | > 100 | > 100 | > 100 | > 100 | > 100 | – | – | > 100 | > 100 |
| O=C1/C(=C\c2cccc(Oc3ccccc3)c2)S(=O)(=O)C(c2ccccc2)N1c1cccc(Cl)c1 (configuration not stated) | > 100 | > 100 | > 100 | > 100 | > 100 | > 100 | 44.8 | > 100 | > 100 | > 100 | > 100 | > 100 | – |
| O=C1CCSCCC(=O)Nc2ccccc2N1 | > 100 | > 100 | > 100 | > 100 | > 100 | > 100 | > 100 | – | > 100 | > 100 | > 100 | > 100 | > 100 |
| COc1cc2c(cc1O)NC(=O)[C@@H]1CCCN1C2=O | > 100 | > 100 | > 100 | > 100 | > 100 | > 100 | > 100 | > 100 | > 100 | > 100 | > 100 | > 100 | > 100 |
| CC(=O)NC1C(Sc2ncn(C3OC(CO)C(O)C(O)C3NC(C)=O)n2)OC(CO)C(O)C1O (configuration not stated) | > 100 | > 100 | > 100 | > 100 | > 100 | > 100 | > 100 | > 100 | > 100 | > 100 | > 100 | > 100 | – |
| O=C1C(Br)=CC2(C=C1Br)CCNC1=C2C(=O)c2ncccc2C1=O | 2.73 | 4.48 | 5.6 | 2.4 | 1.94 | 2.62 | 1.53 | 4.23 | 2.64 | 0.38 | 2.48 | 2.74 | 3.54 |
| COc1cc(Nc2nc3cc(C(F)(F)F)ccc3nc2C(=O)O)cc(OC)c1OC | > 100 | > 100 | > 100 | > 100 | > 100 | > 100 | > 100 | > 100 | > 100 | 38.9 | > 100 | 67.8 | > 100 |
| CCOC(=O)CCC(NC(=O)C(Cc1ccccc1)NC(=O)OCc1ccccc1)C(=O)OCC (stereo not drawn) (Cbz-Phe-Glu(OEt)-OEt; configuration not given here) | > 100 | 32.2 | 28.9 | 33.1 | 31.2 | 43.9 | 27.9 | 32.1 | 41.6 | 48 | 32.1 | 34.1 | 32.6 |
| CS(=O)(=O)N1CC(CCl)c2ccc(O)cc21 (configuration not stated) | 8.35 | 48.2 | 10.3 | 5 | 12.4 | 3.78 | 14.4 | 4.2 | 18.6 | 8.94 | 9.9 | 11.6 | 6.83 |
